Structures can show the parent of a compound that is named as a salt. ± gives the standard error.
Columns and labels:
[1] = tested on: 621-102 (TSC2-deficient); experiment: relative viability vs DMSO; higher = less cytotoxic; conditions: serum: 10% FBS, 72 h
[2] = tested on: 621-103 (TSC2-rescued); experiment: as above; conditions: serum: 10% FBS, 72 h
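Further: immortalized renal angiomyolipoma cells stably carrying empty vector or TSC2, dosed in 384-well plates in DMEM, viability normalized to vehicle-treated wells within each plate.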

| Compound | relative viability ([1]; 0.0001 µM) [%] | relative viability ([1]; 0.001 µM) [%] | relative viability ([1]; 0.01 µM) [%] | relative viability ([1]; 0.1 µM) [%] | relative viability ([1]; 1 µM) [%] | relative viability ([1]; 10 µM) [%] | relative viability ([2]; 0.0001 µM) [%] | relative viability ([2]; 0.001 µM) [%] | relative viability ([2]; 0.01 µM) [%] | relative viability ([2]; 0.1 µM) [%] | relative viability ([2]; 1 µM) [%] | relative viability ([2]; 10 µM) [%] |
| --- | --- | --- | --- | --- | --- | --- | --- | --- | --- | --- | --- | --- |
| CC1(C)CCC(c2ccc(Cl)cc2)=C(CN2CCN(c3ccc(C(=O)NS(=O)(=O)c4ccc(N[C@H](CCN5CCOCC5)CSc5ccccc5)c(S(=O)(=O)C(F)(F)F)c4)cc3)CC2)C1 [ABT-263 (Navitoclax)] | 114 ± 3.6 | 123 ± 7.2 | 116 ± 4.2 | 104 ± 3.3 | 118.5 ± 0.83 | 68.4 ± 0.82 | 100.9 ± 0.9 | 98.3 ± 2.4 | 98 ± 1.2 | 98.6 ± 2 | 97.65 ± 0.41 | 55.33 ± 0.17 |
| CN(C/C=C/C#CC(C)(C)C)Cc1cccc2ccccc12 [Terbinafine HCl] | 96.9 ± 2.1 | 97 ± 1.5 | 92 ± 0.96 | 94.1 ± 2.5 | 101 ± 3 | 91.3 ± 3.5 | 101 ± 3.3 | 99.3 ± 5.4 | 104 ± 2.1 | 101 ± 1.3 | 101 ± 1.3 | 97.22 ± 0.58 |
| COc1cc2nccc(Oc3ccc(NC(=O)C4(C(=O)Nc5ccc(F)cc5)CC4)cc3)c2cc1OC [XL184] | 110.1 ± 0.14 | 97.1 ± 3.1 | 98.8 ± 3.1 | 107 ± 1.7 | 107 ± 2 | 99.4 ± 0.21 | 97.27 ± 0.56 | 98.1 ± 1.1 | 96.6 ± 1.1 | 98.8 ± 2.2 | 98.7 ± 1.5 | 81.9 ± 4.7 |
| COCC(=O)NC/C=C/c1ccc2ncnc(Nc3ccc(Oc4ccc(C)nc4)c(C)c3)c2c1 | 100 ± 2.7 | 97.758 ± 0.079 | 97.3 ± 1.7 | 93.9 ± 1.9 | 98.9 ± 2.8 | 93.2 ± 2.4 | 101 ± 1.9 | 101.6 ± 0.36 | 103.06 ± 0.024 | 104 ± 1.2 | 103.7 ± 0.92 | 107.8 ± 0.28 |
| CC[C@]1(O)C[C@H]2CN(CCc3c([nH]c4ccccc34)[C@@](C(=O)OC)(c3cc4c(cc3OC)N(C=O)[C@H]3[C@@](O)(C(=O)OC)[C@H](OC(C)=O)[C@]5(CC)C=CCN6CC[C@]43[C@@H]65)C2)C1 [Vincristine Sulfate] | 42 ± 1.8 | 37.1 ± 4.2 | 41.7 ± 0.87 | 38.6 ± 0.59 | 37 ± 0.55 | 33.5 ± 1.3 | 48.3 ± 0.14 | 38 ± 0.93 | 33.5 ± 0.55 | 30.4 ± 0.59 | 27.1 ± 1.3 | 21.9 ± 0.84 |
| COC(=O)c1ccc2c(C(=Nc3ccc(N(C)C(=O)CN4CCN(C)CC4)cc3)c3ccccc3)c(O)[nH]c2c1 [BIBF1120 (Vargatef)] | 101 ± 2.6 | 111 ± 5.3 | 112 ± 1.5 | 108 ± 3.1 | 105 ± 1.7 | 95.8 ± 1.2 | 86 ± 5.4 | 97.2 ± 3.1 | 103.3 ± 0.75 | 98.9 ± 3.9 | 96.9 ± 2.5 | 82 ± 2.1 |
| Oc1cccc(-c2nc(N3CCOCC3)c3oc4ncccc4c3n2)c1 [PI-103] | 105 ± 1.1 | 92.1 ± 7.2 | 95.5 ± 3.6 | 103 ± 1.9 | 91.8 ± 3.4 | 37.66 ± 0.19 | 112 ± 1.2 | 95.6 ± 3.2 | 101.2 ± 0.72 | 102.5 ± 0.82 | 83.4 ± 2.7 | 38 ± 0.63 |
| Cc1ccc(C(=O)N(CCCN)[C@@H](c2nc3cc(Cl)ccc3c(=O)n2Cc2ccccc2)C(C)C)cc1 [Ispinesibmesilate] | 95.1 ± 1.5 | 81.2 ± 1.3 | 77.62 ± 0.57 | 63.9 ± 3 | 73 ± 1.6 | 1.22 ± 0.096 | 68.8 ± 3 | 51.76 ± 0.14 | 55.41 ± 0.1 | 49.4 ± 1.4 | 53.36 ± 0.26 | 1.19 ± 0.11 |
| O=C(O)[C@H]1O[C@@H](Oc2cc3oc(-c4ccccc4)cc(=O)c3c(O)c2O)[C@H](O)[C@@H](O)[C@@H]1O [Baicalin] | 97.45 ± 0.88 | 108 ± 3.8 | 106 ± 2.6 | 106 ± 1.6 | 110 ± 1.3 | 98.5 ± 1.3 | 113.5 ± 0.92 | 106 ± 1.2 | 118.8 ± 1.1 | 106 ± 4.6 | 105 ± 1.2 | 107.9 ± 0.63 |
| Oc1ccc(-c2nc(-c3ccc(F)cc3)c(-c3ccncc3)[nH]2)cc1 | 104 ± 3.7 | 106.7 ± 0.78 | 104 ± 3.6 | 104.8 ± 0.31 | 103.8 ± 0.12 | 105 ± 2.4 | 99.5 ± 0.91 | 99.83 ± 0.79 | 99.49 ± 0.82 | 97.7 ± 1.4 | 98.4 ± 1.1 | 98.8 ± 1.3 |
| COc1cc(OC)c(/C=C/S(=O)(=O)Cc2ccc(OC)c(NCC(=O)O)c2)c(OC)c1 | 109 ± 2.7 | 109 ± 2.2 | 103.2 ± 0.43 | 97.9 ± 1.3 | 42 ± 1.4 | 30.9 ± 0.31 | 100.5 ± 0.4 | 99 ± 1.7 | 98.7 ± 1.2 | 97.9 ± 1.8 | 47.98 ± 0.052 | 24.1 ± 0.81 |
| COc1ccc(-n2nc(C(N)=O)c3c2C(=O)N(c2ccc(N4CCCCC4=O)cc2)CC3)cc1 [Apixaban] | 107.9 ± 0.95 | 121 ± 0.2 | 112 ± 4.2 | 108 ± 3.1 | 91.79 ± 0.34 | 111 ± 2.4 | 117 ± 4.5 | 116.3 ± 0.34 | 115 ± 1.5 | 110 ± 3.2 | 104 ± 3.3 | 105 ± 4.6 |
| COC(=O)C1=C(C)NC(C)=C(C(=O)OCCN2CCN(C(c3ccccc3)c3ccccc3)CC2)C1c1cccc([N+](=O)[O-])c1 (stereo not drawn) [Manidipine] | 101 ± 4 | 102 ± 1.7 | 99.9 ± 1.5 | 97.7 ± 1.7 | 93.8 ± 1.4 | 96.95 ± 0.61 | 109 ± 3.1 | 108 ± 2.9 | 106 ± 2 | 108 ± 2.5 | 103 ± 2.2 | 101 ± 6.2 |
| Cc1ccc(F)c(NC(=O)Nc2ccc(-c3cccc4[nH]nc(N)c34)cc2)c1 [ABT-869] | 106 ± 3 | 100.3 ± 0.6 | 108 ± 1.6 | 108 ± 5.5 | 107 ± 2.2 | 86 ± 1.5 | 97.84 ± 0.17 | 100 ± 1.3 | 108 ± 6.2 | 107 ± 3.4 | 109.7 ± 0.82 | 80.4 ± 3.2 |
| CCC1=C[C@@H]2CN(C1)Cc1c([nH]c3ccccc13)[C@@](C(=O)OC)(c1cc3c(cc1OC)N(C)[C@H]1[C@@](O)(C(=O)OC)[C@H](OC(C)=O)[C@]4(CC)C=CCN5CC[C@@]31[C@H]54)C2 [Vinorelbine(Navelbine)] | 51.2 ± 1.2 | 41.4 ± 1.7 | 44.2 ± 2.1 | 38.08 ± 0.27 | 36.28 ± 0.14 | 27.51 ± 0.032 | 50.3 ± 2.2 | 37.9 ± 1.1 | 39 ± 0.6 | 31.2 ± 0.92 | 29.86 ± 0.072 | 24.6 ± 0.88 |
| Cc1cc(NS(=O)(=O)c2ccc(N)cc2)no1 [Sulfamethoxazole] | 105 ± 5.2 | 104 ± 3.8 | 104.66 ± 0.095 | 97.02 ± 0.95 | 101.8 ± 0.93 | 97.2 ± 2 | 96.09 ± 0.3 | 102 ± 2.2 | 101 ± 3.9 | 101 ± 4.7 | 99.4 ± 6 | 101 ± 1.7 |
| NC(=O)c1cccc(-c2cccc(OC(=O)NC3CCCCC3)c2)c1 [URB597] | 104.9 ± 0.41 | 107 ± 7 | 109.5 ± 0.46 | 98.4 ± 2.9 | 99.6 ± 4.4 | 92.7 ± 5.8 | 103 ± 3.1 | 106 ± 3.3 | 103 ± 1.4 | 106 ± 2.8 | 104 ± 4 | 112.8 ± 0.77 |
| Nc1nc(Nc2ccc(S(N)(=O)=O)cc2)nn1C(=O)c1c(F)cccc1F | 107 ± 1.5 | 102.5 ± 0.3 | 107 ± 1.8 | 104 ± 1.3 | 97 ± 1.4 | 49.9 ± 5.8 | 98.71 ± 0.9 | 105 ± 2.8 | 106.4 ± 0.39 | 110 ± 4.5 | 93.5 ± 4.2 | 40.01 ± 0.12 |
| C/C(=C\c1csc(C)n1)[C@@H]1C[C@@H]2O[C@]2(C)CCC[C@H](C)[C@H](O)[C@@H](C)C(=O)C(C)(C)[C@@H](O)CC(=O)O1 [Epothilone B (EPIO906)] | 29.4 ± 1.8 | 29.3 ± 0.11 | 27.3 ± 1.2 | 32.2 ± 1.6 | 35.2 ± 2.2 | 37.6 ± 1.2 | 56.73 ± 0.32 | 48.3 ± 0.41 | 38.2 ± 1 | 35.28 ± 0.27 | 48.9 ± 1.2 | 60.1 ± 1.1 |

Source: the supplement of paper PMC8960247
